According to patent US20170066797A1, “WITHAFERIN A ANALOGS AND USES THEREOF” (Whitehead Institute for Biomedical Research, priority 2008, published 2017):

What was measured:
[1] = test system: primary astrocytes / primary neurons co-culture; test: Glutathione depletion astrocyte-neuron co-culture model (HCA, MAP-2 readout); format: cell-based, rat; conditions: astrocytes pre-treated 24 h, then 5 mM homocysteic acid 48 h, FIG. 14
Description: FIGS. 14A and 14B. (A) Withaferin A (WA) mediates astrocyte-dependent neuronal protection. Primary astrocytes cultured from the cerebral cortices of postnatal rat pups, were treated with WA for 24 h, and were washed with serum-containing media to completely remove WA from the culture media. […] 48 h later neuronal viability was assessed by quantifying the neuronal marker MAP-2. (B) WA-mediated neuroprotection from oxidative stress.
WA was tested in a second model for neuroprotection that utilizes primary astrocytes cultured from the cerebral cortices of postnatal day 1-3 rat pups. In the CNS, astrocytes play a pivotal role in protecting neurons from oxidative stress, a hallmark of nearly all neurodegenerative diseases and disorders. […]
In this assay, which is summarized in FIG. 13, primary astrocytes were isolated from the cerebral cortices of postnatal day 1-3 rat pups, allowed to grow to confluency for ˜2 weeks, and then treated with test compound for 24 h. […] Quantification of the neuron-specific protein microtubule-associated protein-2 (MAP-2) is used to monitor neuronal specific death in this astrocyte-neuron co-culture model as described previously (Carrier et al., J. Neuroscience Methods, 154: 239-244.2006). […] HRP activity is then measured using a reaction buffer containing 150 uM amplex red (Molecular Probes) and 800 uM hydrogen peroxide (Sigma). […]

[2] = test system: rat spinal cord motor neurons; test: Neurotrophic factor (BDNF) deprivation-induced apoptosis of spinal cord motor neurons; format: cell-based; conditions: for reduction in cell death of motor neurons plated in the absence of BDNF: 24 hours, calcein-A
Description: FIGS. 12A-12D. Neuronal survival and increase in neurite length as assessed by calcein-A staining which is taken up by viable neurons. (A) In the absence of BDNF (−BDNF) there is approximately 40% reduction in viable motor neurons compared to wells with BDNF present (+BDNF). Addition of withaferin A (WA) to the motor neuron cultures plated in the absence of BDNF results in a 50% reduction in cell death at 200 nM (0.2 μM) concentration of WA and a 75% reduction in cell death at 400 nM (0.4 μM) as assessed after 24 hours. […] (B) Graph showing percent protection. (C) Motor neuron viability assay of WA. (D) WA increases neurite length (normalized to control) measured at the end of the experiment.
Neurotrophic factor deprivation-induced apoptosis of rat spinal cord motor neurons was used as a model system to evaluate neuroprotective activity of withaferin A. Primary spinal cord motor neurons were purified from E15 rats. These cells were dissociated from the ventral spinal cord, enriched by density gradient centrifugation, and purified by magnetic bead cell separation using an antibody against p75NTR which is expressed on the cell surface of motor neurons at this developmental age. The resulting cultures are ˜96% motor neurons as assessed by HB9 or islet-1 immunoreactivity and are virtually devoid of astrocytes or microglia. For viability experiments, the cells were plated at a low density (500 cells/well of a 96-well plate). In these cultures, motor neuron survival is highly dependent on trophic factors added to the culture media (in the form of BDNF, GDNF, or cardiotrophin-1), as ˜50% of the attached cells will undergo apoptosis when deprived of trophic factors (Oppenheim, R. W., et al., Nature, 360: 755-757; Henderson, C. E., et al., Science, 266: 1062-1064, 1994). BDNF was used as the trophic factor.
Neuronal survival was assessed by staining with calcein-A, a fluorescent dye that is taken up by viable neurons. […]
In some experiments, a fluorescence image of the entire well within a plate was captured using a flash cytometer (Trophos). […]

[3] = test system: Ewing's sarcoma cells (CHP-100); conditions: 72 hours, MTT, FIG. 5
Description: Relative viable cell number was quantified by MTT assay. Results are presented as a percentage compared to wells exposed to DMSO alone. […] Points: mean of triplicate determinations; Error bars: s.d.

With `CC1=C(CO)C(=O)OC([C@@H](C)C2CCC3C4C[C@H]5O[C@]56[C@@H](O)C=CC(=O)[C@]6(C)C4CC[C@@]32C)C1` (some centres unmarked) [Withaferin A] the “astrocyte-dependent protection of neurons from oxidative stress (MAP-2)” value [1] was “enhance the protection of neurons exposed to oxidative stress”, the “reduction in cell death of motor neurons plated in the absence of BDNF” value ([2]; 200 nM (0.2 μM)) was 50% and the “reduction in cell death of motor neurons plated in the absence of BDNF” value ([2]; 400 nM (0.4 μM)) was 75%. The “neurite growth of motor neurons” value ([2]; FIG. 12D) was “induces the growth of neurites” and the “inhibition of tumor cell growth in vitro, CHP-100” value [3] was “inhibit tumor growth in Ewing's sarcoma”.
